Source: publication PMC4389225, “Triaminopyrimidine is a fast-killing and long-acting antimalarial clinical candidate” (Nature Communications, 2015)
Like-named read-outs stand apart in the source and are kept apart here.

Experiments:
GPCR = experiment: Secondary pharmacology panel, target #13
Description: (§1) An in vitro pharmacological profiling panel was specifically designed for the detection of potential high- risk clinical adverse drug reactions. […] For enzyme and kinase assays, the results were expressed as a percent inhibition of control-specific activity obtained in the presence of the test compound. The IC50 values (concentration causing a half-maximal inhibition of control-specific activity) and Hill coefficients (nH) were determined by nonlinear regression analysis of the inhibition/concentration–response curves using Hill equation curve fitting as described earlier[37].
(§2) For assessment of activity against these targets, compounds were tested in an 8-point
(§3) concentration response covering half-log units up to a top test concentration of 100 µM, and
(§4) an IC50 or Ki determined using either radio ligand binding assays or enzyme activity assays.

Muscarinic M2 receptor = molecular target: T1, Muscarinic M2 receptor (Homo sapiens, UniProt P08172); experiment: Muscarinic M2 receptor radioligand binding (CEREP)
T1 construct: purchased CEREP, France (external assay service)
T1 sequence (P08172 1-466): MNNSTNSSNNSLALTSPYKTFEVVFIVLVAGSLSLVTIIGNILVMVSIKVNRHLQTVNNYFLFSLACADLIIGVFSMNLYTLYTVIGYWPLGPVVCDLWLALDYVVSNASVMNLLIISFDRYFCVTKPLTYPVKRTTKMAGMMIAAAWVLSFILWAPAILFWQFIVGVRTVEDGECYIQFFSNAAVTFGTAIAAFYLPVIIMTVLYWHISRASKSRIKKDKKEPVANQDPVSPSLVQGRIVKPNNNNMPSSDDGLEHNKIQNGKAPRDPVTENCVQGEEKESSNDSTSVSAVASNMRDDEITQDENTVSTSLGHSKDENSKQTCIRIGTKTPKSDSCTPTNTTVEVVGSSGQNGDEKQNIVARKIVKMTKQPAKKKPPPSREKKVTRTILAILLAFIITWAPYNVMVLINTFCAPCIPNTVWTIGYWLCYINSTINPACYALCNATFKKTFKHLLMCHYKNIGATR
Description: An in vitro pharmacological profiling panel was specifically designed for the detection of potential high- risk clinical adverse drug reactions. The panel comprised of 26 diverse targets (6 enzymes, 2 transporters, 9 G-protein-coupled receptors (GPCRs), 5 ion channels along with hERG, M2, alpha1A and AchE) and was conduced externally by CEREP, France […]. […] Detailed methodology for in vitro pharmacological profiling assays provided by CEREP can be found at http://www.cerep.fr, with specific reference to the AChE (cat. no. 0363), Muscarinic M1 receptor (cat. no. 0091) and Adrenergic α1A receptor (cat. no. 2338) assays. For enzyme and kinase assays, the results were expressed as a percent inhibition of control-specific activity obtained in the presence of the test compound. The IC50 values (concentration causing a half-maximal inhibition of control-specific activity) and Hill coefficients (nH) were determined by nonlinear regression analysis of the inhibition/concentration–response curves using Hill equation curve fitting as described earlier.
For radioligand binding assays, the results are expressed as % inhibition of control-specific binding obtained in the presence of the test compounds. The IC50 values (concentration causing a half-maximal inhibition of control-specific binding) and Hill coefficients (nH) were determined by nonlinear regression analysis of the competition curves generated with mean replicate values using Hill equation curve fitting. The inhibition constants (Ki) were subsequently calculated by applying the Cheng Prusoff equation[38].

Ion channel [1] = experiment: Secondary pharmacology panel, target #17
Description: as §1, §2, §3, §4

Ion channel [2] = experiment: Secondary pharmacology panel, target #2
Description: as §1, §2, §3, §4

Ion channel [3] = experiment: Secondary pharmacology panel, target #16
Description: as §1, §2, §3, §4

[4] = Dog plasma PK, IV and oral; format: in vivo; conditions: male, Beagle; for clearance / AUC(0-inf) / AUC(0-t) / Cmax / MRT / half-life / Vd / bioavailability: dog; for half-life: read-out: t½ (converted); for Vd: read-out: Vss
Description: Pharmacokinetic studies to estimate the blood levels of compounds in dogs. PK in fasted, male Beagle dogs (n = 2 per dose) was studied after a single dose administered by intravenous infusion for 15 min (IV) or by an oral route (PO). Solution formulation containing 10% ethanol, 30% PEG 400, 60% saline was used for IV administration and a suspension in 0.5% w/v HPMC with 0.1% v/v Tween 80 was used for oral administration.
48 hours after an oral dose of 5 mg/kg. Blood samples were centrifuged and plasma samples were analyzed by LC/MS/MS. Dog PK profiles are shown in supplementary Fig. 11 and PK parameters are described in supplementary Table 9.

[5] = plasma, iv, 2.1 mg/kg, IV 2.1 mg kg-1, Dog 1
[6] = plasma, iv, 2.1 mg/kg, IV 2.1 mg kg-1, Dog 2
[7] = plasma, iv, 2.1 mg/kg, IV 2.1 mg kg-1, Mean
[8] = plasma, po, 5.1 mg/kg, Oral 5.1 mg kg-1, Dog 1
[9] = plasma, po, 5.1 mg/kg, Oral 5.1 mg kg-1, Dog 2
[10] = plasma, po, 5.1 mg/kg, Oral 5.1 mg kg-1, Mean

Cc1cc(Nc2ncc(N3CCN(C)CC3)c(N3CCCC3)n2)ccn1 [compound 2]
Binding Ki / Enzyme IC50 (GPCR): 38700 nM
IC50 (Muscarinic M2 receptor): 1600 nM
Ki (Muscarinic M2 receptor): 1100 nM
Selectivity ratio for M2 (IC50 / blood Cmin at ED90 in the Pf/SCID model) (Muscarinic M2 receptor): < 1
Binding Ki / Enzyme IC50 (Ion channel [1]): 59000 nM
Binding Ki / Enzyme IC50 (Ion channel [2]): 933 nM
Binding Ki / Enzyme IC50 (Ion channel [3]): 33200 nM

Cc1nc(Nc2ncc(N3CCN(C)[C@H](C)C3)c(Nc3cc(C)n(C)n3)n2)cc(C2CC2)c1F [compound 12, (R)-N2-(4-cyclopropyl-5-fluoro-6-methylpyridin-2-yl)-N4-(1,5-dimethyl-1H-pyrazol-3-yl)-5-(3,4-dimethylpiperazin-1-yl)pyrimidine-2,4-diamine]
Binding Ki / Enzyme IC50 (GPCR): 11500 nM
clearance ([4]; blood, iv, 2.1 mg kg-1, Dog, read-out: Observed blood CL): 19 mL/min/kg
AUC(0-inf) [4, 5]: 2.72 µM·h
AUC(0-t) [4, 5]: 2.16 µM·h
Cmax [4, 5]: 641 nM
MRT [4, 5]: 15.1 h
half-life [4, 5]: 11 h
AUC(0-inf) [4, 6]: 3.47 µM·h
AUC(0-t) [4, 6]: 2.68 µM·h
Cmax [4, 6]: 515 nM
MRT [4, 6]: 15.9 h
half-life [4, 6]: 11 h
AUC(0-inf) [4, 7]: 3.1 µM·h
AUC(0-t) [4, 7]: 2.42 µM·h
Cmax [4, 7]: 578 nM
MRT [4, 7]: 15.5 h
half-life [4, 7]: 11 h
clearance ([4]; plasma, iv, 2.1 mg/kg, plasma, IV 2.1 mg kg-1, Dog 1, read-out: CL): 27.5 mL/min/kg
Vd ([4]; plasma, iv, 2.1 mg/kg, plasma, IV 2.1 mg kg-1, Dog 1): 24.9 L/kg
clearance ([4]; plasma, iv, 2.1 mg/kg, plasma, IV 2.1 mg kg-1, Dog 2, read-out: CL): 21.3 mL/min/kg
Vd ([4]; plasma, iv, 2.1 mg/kg, plasma, IV 2.1 mg kg-1, Dog 2): 20.4 L/kg
clearance ([4]; plasma, iv, 2.1 mg/kg, plasma, IV 2.1 mg kg-1, Mean, read-out: CL): 24.4 mL/min/kg
Vd ([4]; plasma, iv, 2.1 mg/kg, plasma, IV 2.1 mg kg-1, Mean): 22.7 L/kg
AUC(0-inf) [4, 8]: 5.87 µM·h
AUC(0-t) [4, 8]: 5.27 µM·h
Cmax [4, 8]: 300 nM
bioavailability [4, 8]: 88.1%
half-life [4, 8]: 15.2 h
AUC(0-inf) [4, 9]: 8.28 µM·h
AUC(0-t) [4, 9]: 7.48 µM·h
Cmax [4, 9]: 603 nM
bioavailability [4, 9]: 96.4%
half-life [4, 9]: 17 h
AUC(0-inf) [4, 10]: 7.08 µM·h
AUC(0-t) [4, 10]: 6.38 µM·h
Cmax [4, 10]: 452 nM
bioavailability [4, 10]: 92.3%
half-life [4, 10]: 16.1 h
Tmax ([4]; plasma, Oral 5.1 mg kg-1, Dog 1): 2 h
IC50 (Muscarinic M2 receptor): 2000 nM
Ki (Muscarinic M2 receptor): 1050 nM
Binding Ki / Enzyme IC50 (Ion channel [1]): > 100000 nM
Binding Ki / Enzyme IC50 (Ion channel [2]): 2620 nM
Binding Ki / Enzyme IC50 (Ion channel [3]): > 100000 nM
